As a reminder, the IC50 is the concentration at which inhibition is half-maximal. Read a high IC50 as weaker potency. In general, inhibition refers to the drop in the measured response relative to a control, in per cent. A higher inhibition goes with a strong effect.

Assay [1] concerns the target IRAK1 (Homo sapiens, UniProt P51617). As to the kind of experiment: Competition binding assay in HL60 cell lysate, antibody detection. Details: endogenous in cells; host or cells: HL60. The conditions noted are these: dose response curve, anti-IRAK1 antibody. Here is the method:
(§1) The experiment was performed as described in example 7. The test compound (or DMSO as solvent control) and diluted cell lysate were added to the affinity matrix and incubated for two hours at 4° C. After washing, captured proteins were eluted with SDS-containing sample buffer. After spotting of eluate samples onto Nitrocellulose membranes IRAK1 was detected with an anti-IRAK1 antibody and IRAK4 with anti-IRAK4 antibody followed by incubation with a secondary fluorescently labeled detection antibody.
(§2) Various concentrations of test compounds were added to HL60 lysate samples and allowed to bind to the proteins contained in the lysate sample. At the same time the affinity matrix with the immobilized compound (FIG. 3, CZC31326) was added as well in order to capture proteins not bound to the test compound. After the incubation time the beads with captured proteins were separated from the lysate. Bound proteins were then eluted and the presence of IRAK1 and IRAK4 was detected and quantitavely determined using specific antibodies and the Odyssey Infrared Detection system. […]
(§3) The kinases in the eluates were detected and quantified by spotting on Nitrocellulose membranes and using a first antibody directed against the kinase of interest and a fluorescently labeled secondary antibody (anti-mouse or anti-rabbit IRDye™ antibodies from Rockland). […]

In assay [2] the target is T1, IRAK4 (Homo sapiens, UniProt Q9NWZ3).
T1 sequence (Q9NWZ3 1-460): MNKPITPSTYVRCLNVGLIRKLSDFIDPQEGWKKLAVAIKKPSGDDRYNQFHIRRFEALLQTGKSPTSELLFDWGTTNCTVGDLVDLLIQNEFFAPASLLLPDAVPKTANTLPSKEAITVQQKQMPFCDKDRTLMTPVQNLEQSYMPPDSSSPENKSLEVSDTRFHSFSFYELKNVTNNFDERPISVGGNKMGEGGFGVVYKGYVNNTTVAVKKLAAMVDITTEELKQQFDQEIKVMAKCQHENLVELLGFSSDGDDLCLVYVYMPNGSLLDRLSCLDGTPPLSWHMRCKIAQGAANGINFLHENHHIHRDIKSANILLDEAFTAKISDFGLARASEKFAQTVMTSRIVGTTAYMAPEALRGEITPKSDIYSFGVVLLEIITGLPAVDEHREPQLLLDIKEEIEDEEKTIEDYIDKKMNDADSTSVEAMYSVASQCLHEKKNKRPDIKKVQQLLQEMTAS
The assay is described as above. Set-up: endogenous in cells; host or cells: HL60. The conditions noted are these: dose response curve, anti-IRAK4 antibody. As for the experimental part:
as §1, §2, §3

The target of assay [3] is CDK2 (Homo sapiens, UniProt P24941). As to the kind of experiment: Kinobeads competition binding, HeLa Placenta lysate mix. Set-up: capturing and identification of kinases from mixed HeLa placenta lysates; endogenous in cells; host or cells: mix of HeLa cell lysate and placenta tissue lysate. The settings on record: 10 μM free compound. Here is the method:
(§4) To one aliquot of cell lysate 10 μM of the free compound (FIG. 3, CZC31326) was added and allowed to bind to proteins in the lysate. Then the affinity matrix with the immobilized compound was added to capture proteins that were not interacting with the previously added free compound. Beads were separated from the lysate and bead bound proteins were eluted in SDS sample buffer and subsequently separated by SDS-Polyacrylamide gel electrophoresis (FIG. 10). Suitable gel bands were cut out and subjected to in-gel proteolytic digestion with trypsin. The second lysate aliquot was processed identically, however no free compound was added (DMSO solvent control). Peptides originating from samples 1 and 2 were labeled with iTRAQ reagents (iTRAQ 114 and iTRAQ 117) and the combined samples were analyzed with a nano-flow liquid chromatography system coupled online to a tandem mass spectrometer (LC-MS/MS) experiment followed by iTRAQ reporter ion quantification in the MS/MS spectra as described in Example 2.

Assay [4] has as its target MST2 (Homo sapiens, UniProt Q13188). The assay is described as above. Set-up: capturing and identification of kinases from mixed HeLa placenta lysates; endogenous in cells; host or cells: mix of HeLa cell lysate and placenta tissue lysate. The settings on record: 10 μM free compound. Here is the method: as §4
Assay [5] addresses CK2a2 (Homo sapiens, UniProt P19784). The assay is described as above. Set-up: capturing and identification of kinases from mixed HeLa placenta lysates; endogenous in cells; host or cells: mix of HeLa cell lysate and placenta tissue lysate. The settings on record: 10 μM free compound. Here is the method: as §4

Consider `CS(=O)(=O)Nc1ccccc1Nc1nc(Nc2cccc(OCCN)c2)ncc1Cl` [CZC31326, N-(2-(2-(3-(2-aminoethoxy)phenylamino)-5-chloropyrimidin-4-ylamino)phenyl)methanesulfonamide], for which the values for the IC50 in assay [1] and in assay [2] were 150 nM and 40 nM, respectively. This compound had a Competition % in assay [3] of 93%. Besides, the inhibition at 10 µM in assay [4] was determined as 93.9%; in assay [5] it was 95.4%.
